Results from patent US20220202739A1, “ENDOCANNABINOID MIMETIC AND ANTI-INFLAMMATORY COMPOUND CONTAINING COMPOSITIONS, METHODS OF PREPARATION AND USES THEREOF” (priority 2019, published 2022).

What was measured:
Assay type in all cases: cell-based, human
Details in all cases: pooled keratinocytes, 20 ppm, 24 hr
FLG = assay: Gene expression custom microarray, pooled keratinocyte line (Example 3): FLG
Procedure: (§1) Cell cultures: Received and began culture of pooled keratinocyte line from Promocell (C-12006; Lot #448Z026). Cells were seeded into a 75 cm2 flask and 2 6 well dishes for expansion and exposure per manufacturer's protocol using Keratinocyte Growth Medium (C2011B), Keratinocyte Supplement Mix (C39016) and CaCl (C34005). 2 ml of prepared solution were added to each of the 6 wells and 7 ml was added to the 75 cm2 flask.
(§2) Experimental phase: When the appropriate quantity of cells were grown, they were detached as described above, but at the final step were seeded into each well of one or more 6 well dishes. Each well received 2 ml of the cells suspended in suspension so they were seeded equally. The dishes were returned to the incubator until 85-95% confluency is reached.
(§3) It was at this stage that all wells were rinsed in PBS after aspirating the growth media. The compound(s) to be tested were previously mixed into a suitable solvent (e.g., DMSO or ethanol) that can be diluted to the desired concentration of test compound (10 μl) in the culture wells without exceeding maximum solvent concentrations and adversely effecting cell viability, and mixed with Basal Keratinocyte Media. NOTE: Standard maximum levels of solvent are 0.1% for DMSO and 0.5% for ETOH. The concentration for each tested compound/natural extract is generally listed in the left-hand column of Table 4. For certain compositions (e.g., compositions 15 and 16), other concentrations were used and are noted in the body of Table 4.
(§4) Every 2 wells on the 6 well plate served as a biological replicate for the purposes of RNA isolation and genetic expression evaluations making each 6 well dish an n=3 for the test compound contained in the media. […]
(§5) At the end of the 24 hr time period, the plates were removed from the incubator, the test media aspirated, and the cells rinsed with PBS. […] Allow 1 minute for saturation of the membrane and then centrifuge for 2 minutes to complete the RNA elution. • Quantify the quantity of RNA and store at −20 C° until use (no more than 1 month) […]

IL1A = assay: Gene expression custom microarray, pooled keratinocyte line (Example 3): IL1A
Procedure: as §1, §2, §3, §4, §5

MMP1 = assay: Gene expression custom microarray, pooled keratinocyte line (Example 3): MMP1
Procedure: as §1, §2, §3, §4, §5

NFKB1 = assay: Gene expression custom microarray, pooled keratinocyte line (Example 3): NFKB1
Procedure: NOTE: Standard maximum levels of solvent are 0.1% for DMSO and 0.5% for ETOH.
The plates were returned to the incubator for 24 hrs.
At the end of the 24 hr time period, the plates were removed from the incubator, the test media aspirated, and the cells rinsed with PBS. […] Pipet multiple times to ensure thorough lysis. Add lysed cells to the collection tube. • Add 350 μl of 70% ETOH to the collection tube and mix thoroughly. • Pipet the generated lysate onto the spin column placed in a new 2 ml tube. Centrifuge for 30 sec between 8,000 and 10,000 g. • Place the spin column containing the now bound RNA, in a new 2 ml tube. Add 700 μl of low stringency wash solution to the spin column. Centrifuge for 30 sec between 8,000 and 10,000 g. Discard the flow through and replace spin column. • Add 80 μl of DNase I dilution to the spin column and incubate at room temperature for 15 minutes. • Add 700 μl of high stringency wash solution to the column and centrifuge for 30 sec between 8,000 and 10,000 g. Discard flow through. • Add 700 μl of low stringency wash solution to the column and centrifuge for 60 sec between 8,000 and 10,000 g. Discard flow through. • Centrifuge for 2 minutes to remove residual wash solution. • Transfer spin column to new 1.5 ml collection tube and add 80 μl of elution solution to the column. Allow 1 minute for saturation of the membrane and then centrifuge for 2 minutes to complete the RNA elution. • Quantify the quantity of RNA and store at −20 C° until use (no more than 1 month)

Compound	↑FLG gene expression, fold increase or decrease vs untreated cells (FLG) [fold]	↓IL1A gene expression, fold increase or decrease vs untreated cells (IL1A) [fold]	↓MMP1 gene expression, fold increase or decrease vs untreated cells (MMP1) [fold]	↓NFKB1 gene expression, fold increase or decrease vs untreated cells (NFKB1) [fold]
C=C(C)[C@@H]1CCC(C)=C[C@H]1c1c(O)cc(CCCCC)cc1O [CBD, cannabidiol, reference compound]	1.1	2.3	6.5	2.5
CCCCCCCCCCCCCCCC(=O)NCCO [N-palmitoylethanolamide]	28.6	−1.2	12.2	−2.2
CC(C)[C@]12O[C@H]1[C@@H]1O[C@]13[C@]1(O[C@H]1C[C@H]1C4=C(CC[C@@]13C)C(=O)OC4)[C@@H]2O [Triptolide]	14.4	−14	1.2	−4.2
